For experiment [1], the system named is Ishikawa human endometrial tumor cells. The experiment in a line: Ishikawa alkaline phosphatase (PNPP) assay, antagonist mode. Type of experiment: cell-based. The following applies: with E2 (1 nM). From the text: (§1) Ishikawa human endometrial tumor cells are maintained in MEM (minimum essential medium, with Earle's salts and L-Glutamine, Gibco BRL, Gaithersburg, Md.), supplemented with 10% fetal bovine serum (FBS) (V/V), (Gibco BRL). One day prior to assay, growth media is changed to assay medium, DMEM/F-12 (3:1) (Dulbecco's Modified Eagle Medium: Nutrient Mixture F-12,3:1 Mixture, phenol red-free, Gibco BRL) supplemented with 5% dextran coated charcoal stripped fetal bovine serum (DCC-FBS) (Hyclone, Logen, Utah), L-Glutamine (2 mM), MEM sodium pyruvate (1 mM), HEPES (N-[2-hydroxyethyl]piperazine-N′-[2-ethanesulfonic acid] 2 mM) all from Gibco BRL). After an overnight incubation, ishikawa cells are rinsed with Dulbecco's Phosphate Buffered Saline (1×) (D-PBS) without Ca^+2 and Mg^+2 (Gibco BRL), and trypsinized by a 3 minute incubation with 0.25% Trypsin/EDTA, phenol red-free (Gibco BRL). Cells are resuspended in assay medium and adjusted to 250,000 cells/ml. Approximately 25,000 cells in a 100 ul media are added to flat-bottom 96 wells microculture plates (Costar 3596) and incubated at 37° C. in a 5% CO2 humidified incubator for 24 hours. The next day, serial dilutions of compounds are prepared in assay medium (at 6 times the final concentration in the assay). The assay is run in dual mode, agonist and antagonist modes. For the agonist mode, plates receive 25 μl/well of assay medium followed by 25 μl/well of diluted compounds (at 6× the final concentrations). For the antagonist mode, plates receive 25 μl/well of 6 nM E2 (β-Estradiol, Sigma, St. Louis, Mo.) followed by 25 μl/well of diluted compounds (at 6× the final concentrations). After an additional 48-hour incubation at 37° C. in a 5% CO2 humidified incubator, media is aspirated from wells and 100 μl fresh assay medium is added to each microculture. Serial dilutions of compounds are prepared and added to the cells as described above. After an additional 72 hour incubation at 37° C. in a 5% CO2 humidified incubator, the assay is quenched by removing media and rinsing plates twice in Dulbecco's Phosphate Buffered Saline (1×) (D-PBS) (Gibco BRL). The plates are dried for 5 min and frozen at −70° C. for at least 1 hour. The plates are then removed from the freezer and allowed to thaw at room temperature. To each well, 100 μl of 1-Step™ PNPP (Pierce Chemical Company, Rockford, Ill.) is added. After a 20-minute incubation, plates are read on a spectophotometer at 405 nm. The data is fitted to a linear interpolation to derive EC50 (for agonist mode) or IC50 (for antagonist mode) values. For the agonist mode, a % efficacy for each compound is calculated versus the response to tamoxifen. For the antagonist mode, a % efficacy for each compound is calculated versus E2 (1 nM) alone.

Experiment [2] concerns the target T1, ERbeta receptor (PanVera) (Homo sapiens, UniProt Q92731).
T1 construct: purchased PanVera
Kind of experiment: Competition binding assay, 3H-Estradiol, ERbeta receptor. Conditions: 3H-Estradiol competition; IC50 converted to Ki using Cheng-Prusoff equation; read-out: ER binding Ki (ERβ). The protocol:
(§2) Competition binding assay is run in a buffer containing 50 mM Hepes, pH 7.5, 1.5 mM EDTA, 150 mM NaCl, 10% glycerol, 1 mg/ml ovalbumin and 5 mM DTT, using 0.025 μCi per well ^3H-Estradiol(NEN #NET517 at 118 Ci/mmol, 1 mCi/ml), 10 ng/well ERAlpha or ERbeta receptor (PanVera). Competing compounds are added at 10 different concentrations. Non-specific binding is determined in the presence of 1 μM of 17-B Estradiol. The binding reaction (140 μl) is incubated for 4 hours at room temperature, then 70 μl of cold DCC buffer is added to each reaction (DCC buffer contains per 50 ml of assay buffer, 0.75 g of charcoal (Sigma) and 0.25 g of dextran (Pharmacia)). Plates are mixed 8 minutes on an orbital shaker at 4° C. Plates are then centrifuged at 3,000 rpm at 4° C. for 10 minutes. An aliquot of 120 μl of the mix is transferred to another 96-well, white flat bottom plate (Costar) and 175 μl of Wallac Optiphase “Hisafe 3” scintillation fluid is added to each well. Plates are sealed and shaken vigorously on an orbital shaker. After an incubation of 2.5 hrs, read plates in a Wallac Microbeta counter. The data is used to calculate an IC50 and % Inhibition at 10 μM. The Kd for ^3H-Estradiol is determined by saturation binding to ER alpha and ER beta receptors. The IC50 values for compounds are converted to Ki using Cheng-Prusoff equation and the Kd determined by saturation binding assay.

Experiment [3] deals with MCF-7 breast adenocarcinoma cells. The experiment in a line: MCF-7 proliferation assay (14C-thymidine), antagonist mode. Type of experiment: cell-based. Conditions: E2 10 pM. How it is done: MCF-7 breast adenocarcinoma cells (ATCC HTB 22) are maintained in MEM (minimal essential medium, phenol red-free, Gibco BRL) supplemented with 10% fetal bovine serum (FBS) (VV), L-glutamine (2 mM), sodium pyruvate (1 mM), HEPES ((N-[2-hydroxyethyl]piperazine-N′-[2-ethanesulfonic acid]10 mM}, non-essential amino acids (0.1 mM) and Penicillin Streptomycin (1×). Seven days prior to assay, MCF-7 cells are switched to assay media which is the same as maintenance medium except supplemented with 10% dextran-coated charcoal-stripped fetal bovine serum (DCC-FBS) assay medium in place of 10% FBS. MCF-7 cells are removed from flasks using 10× Trypsin EDTA (phenol red free, Gibco BRL) and diluted to IX in (Ca++/Mg++ free HBSS (phenol red-free). Cells are adjusted to 80,000 cells/ml in assay medium. Approximately 8,000 cells (100 μl) are added to each well in 96 well Cytostar T scintillation plates (Amersham) and incubated at 37° C. in a 5% CO2 humidified incubator for 24 hours to allow cell adherence and equilibration after transfer. Serial dilutions of drugs are prepared in assay medium at 4× the final desired concentration). A 50 μl aliquot of drug dilutions (at 4× the final assay concentration) is transferred to duplicate wells followed by 50 μl assay medium for the agonist mode or 50 μl of 40 pM of E2 for the antagonist mode to a final volume of 200 μl. For each of the agonist plates, a basal level (media) and a maximum stimulated level (with 1 μM E2) is determined. For each of the antagonist plates, a basal level (media) and a E2 (10 pM) alone control is determined. After an additional 48 hours at 37° C. in a 5% CO2 humidified incubator, 20 μl of assay medium containing 0.01 μCi of ^14C-thymidine (52 mCi/mmol, 50 μCi/ul, Amersham) is added to each well. The plates are incubated overnight in the same incubator and then counted on the Wallac Microbeta counter. The data is averaged to calculate an IC50 and % inhibition @ 1 μM for the antagonist mode. For the agonist mode, an EC50 and percent of maximum E2 stimulation and concentration of maximum stimulation is calculated.

For experiment [4], the system named is Ishikawa human endometrial tumor cells. The experiment in a line: Ishikawa alkaline phosphatase (PNPP) assay, agonist mode. Type of experiment: cell-based. Conditions: for Ishikawa Agonist % Eff: % efficacy versus the response to tamoxifen; for EC50: Homo sapiens, Ishikawa.
From the text: as §1

Experiment [5] has as its target T2, ERAlpha receptor (PanVera) (Homo sapiens, UniProt P03372).
T2 construct: purchased PanVera
T2 sequence (P03372 1-595): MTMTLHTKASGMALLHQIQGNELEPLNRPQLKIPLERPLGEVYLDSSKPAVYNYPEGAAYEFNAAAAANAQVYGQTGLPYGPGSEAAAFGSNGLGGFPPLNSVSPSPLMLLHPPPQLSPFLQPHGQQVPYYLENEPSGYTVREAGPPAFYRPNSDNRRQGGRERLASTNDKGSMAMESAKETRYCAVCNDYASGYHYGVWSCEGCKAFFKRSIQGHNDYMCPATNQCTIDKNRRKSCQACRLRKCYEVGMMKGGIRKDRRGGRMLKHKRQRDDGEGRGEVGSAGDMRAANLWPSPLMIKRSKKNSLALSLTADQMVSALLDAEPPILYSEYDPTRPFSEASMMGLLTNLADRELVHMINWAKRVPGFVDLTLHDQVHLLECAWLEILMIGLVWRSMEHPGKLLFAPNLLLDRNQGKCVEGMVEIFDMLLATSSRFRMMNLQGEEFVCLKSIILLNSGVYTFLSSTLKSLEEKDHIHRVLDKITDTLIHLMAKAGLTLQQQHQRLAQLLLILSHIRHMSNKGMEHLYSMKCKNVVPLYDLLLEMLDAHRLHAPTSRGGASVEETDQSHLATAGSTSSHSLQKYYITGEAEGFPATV
Kind of experiment: Competition binding assay, 3H-Estradiol, ERAlpha receptor. Conditions: 3H-Estradiol competition; IC50 converted to Ki using Cheng-Prusoff equation; read-out: ER binding Ki (ERα). How it is done: as §2

Where [6] appears, read: antagonist mode, hydrochloride salt.
Where [7] appears, read: Homo sapiens, MCF7, antagonist mode.

Counter-ions that a name gives are not always drawn.

By IC50 is commonly meant the midpoint of a concentration-inhibition curve. By Ki is commonly meant a measure of affinity in units of concentration, obtained from inhibition or displacement. The EC50 is the midpoint of the concentration-response curve. Lower therefore signals higher potency in that assay.

T1 sequence (Q92731 whole entry): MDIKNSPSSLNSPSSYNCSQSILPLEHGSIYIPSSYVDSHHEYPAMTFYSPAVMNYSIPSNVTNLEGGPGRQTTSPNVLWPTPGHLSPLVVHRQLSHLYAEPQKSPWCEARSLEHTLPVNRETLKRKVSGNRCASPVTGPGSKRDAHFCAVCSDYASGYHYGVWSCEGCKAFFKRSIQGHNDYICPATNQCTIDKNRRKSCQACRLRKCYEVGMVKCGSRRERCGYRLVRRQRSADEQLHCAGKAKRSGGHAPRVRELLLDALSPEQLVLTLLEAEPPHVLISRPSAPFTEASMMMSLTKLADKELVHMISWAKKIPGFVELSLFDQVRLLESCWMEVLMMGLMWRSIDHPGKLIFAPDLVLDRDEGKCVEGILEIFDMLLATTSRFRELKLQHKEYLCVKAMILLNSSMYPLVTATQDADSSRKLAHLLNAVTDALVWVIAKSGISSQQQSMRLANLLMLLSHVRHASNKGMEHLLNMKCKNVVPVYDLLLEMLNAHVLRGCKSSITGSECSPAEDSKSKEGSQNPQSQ

As to `Cl.Oc1ccc2c(c1)COC(c1ccc(OCCN3CCCCC3)cc1)c1c-2ccc2cc(O)ccc12` (single isomer, unassigned) [Example 6, 11-[4-(2-Piperidin-1-yl-ethoxy)-phenyl]-11,13-dihydro-12-oxa-benzo[3,4]cyclohepta[1,2-a]naphthalene-2,8-diolhydrochloride salt], the IC50 turned out to be 740 nM in experiment [1] and 160 nM in experiment [3] (antagonist mode). For the same compound, the Ki in experiment [2] is 120 nM; in experiment [5], 58 nM. In addition, the “Ishikawa Agonist % Eff” value in experiment [4] is recorded as 38%. This compound yielded an EC50 in experiment [4] of 54 nM.
In the case of `Cl.Oc1ccc2c(c1)COC(c1ccc(OCCN3CCCCC3)cc1)c1c-2ccc2cc(O)ccc12` (single isomer, unassigned) [Example 7, 11-[4-(2-Piperidin-1-yl-ethoxy)-phenyl]-11,13-dihydro-12-oxa-benzo[3,4]cyclohepta[1,2-a]naphthalene-2,8-diolhydrochloride salt], the IC50 in experiment [1] was determined as 2.2 nM; in experiment [3] (antagonist mode) it was 0.4 nM. Further, the Ki in experiment [2] stood at 1.7 nM; in experiment [5], 0.7 nM. Besides, in experiment [4], the “Ishikawa Agonist % Eff” value was 2.6%.
As to `Cl.Oc1ccc2c3c(ccc2c1)-c1ccc(F)cc1COC3c1ccc(OCCN2CCCCC2)cc1` (single isomer, unassigned) [Example 8, 2-Fluoro-11-[4-(2-piperidin-1-yl-ethoxy)-phenyl]-11,13-dihydro-12-oxa-benzo[3,4]cyclohepta[1,2-a]naphthalen-8-ol hydrochloride salt], the figures for the IC50 in experiment [1] (hydrochloride salt) and in experiment [3] (setting [6]) were 4.3 nM and 0.4 nM, respectively. Besides, the values for the Ki in experiment [2] and in experiment [5] were 1.4 nM and 0.7 nM, respectively. In addition, in experiment [4] (hydrochloride salt), the “Ishikawa Agonist % Eff” value is 8.8%.
For the compound `Cl.Oc1ccc2c3c(ccc2c1)-c1ccc(F)cc1COC3c1ccc(OCCN2CCCCC2)cc1` (single isomer, unassigned) [Example 9, 2-Fluoro-11-[4-(2-piperidin-1-yl-ethoxy)-phenyl]-11,13-dihydro-12-oxa-benzo[3,4]cyclohepta[1,2-a]naphthalen-8-ol hydrochloride salt], the IC50 in experiment [1] (hydrochloride salt) came out at 350 nM; in experiment [3] (setting [6]) it was 68 nM. The Ki in experiment [2] amounted to 89 nM; in experiment [5] it was 62 nM. Also, in experiment [4] (hydrochloride salt), the “Ishikawa Agonist % Eff” value was found to be 11%.
`COc1ccc2c3c(sc2c1)-c1ccccc1COC3c1ccc(OCCN2CCCCC2)cc1` (stereo not drawn) [Example 1, 1-{2-[4-(10-Methoxy-5H,7H-6-oxa-12-thia-dibenzo[a,e]azulen-7-yl)-phenoxy]-ethyl}-piperidine]: in experiment [4], the “Ishikawa Agonist % Eff” value came to 31% and the EC50 was 300 nM. Moreover, the Ki in experiment [5] worked out at 240 nM.
In the case of `Oc1ccc2c3c(sc2c1)-c1ccccc1COC3c1ccc(OCCN2CCCCC2)cc1` (stereo not drawn) [Example 2, 7-[4-(2-Piperidin-1-yl-ethoxy)-phenyl]-5H,7H-6-oxa-12-thia-dibenzo[a,e]azulen-10-ol], the half-inhibitory concentration (IC50) in experiment [1] (Homo sapiens, Ishikawa) turned out to be 270 nM; in experiment [3] (setting [7]) it was 36 nM. In addition, the Ki in experiment [2] came to 19 nM; in experiment [5] it was 2.9 nM. In addition, the “Ishikawa Agonist % Eff” value in experiment [4] turned out to be 41%. This compound displayed an EC50 in experiment [4] of 2.8 nM.
For `COc1ccc2c3c(ccc2c1)-c1ccccc1COC3c1ccc(OCCN2CCCCC2)cc1` (stereo not drawn) [Example 3, 1-{2-[4-(8-Methoxy-11,13-dihydro-12-oxa-benzo[3,4]cyclohepta[1,2-a]naphthalen-11-yl)-phenoxy]-ethyl}-piperidine], the IC50 in experiment [1] (Homo sapiens, Ishikawa) was 340 nM; in experiment [3] (setting [7]), 480 nM. The Ki stood at 430 nM in experiment [2] and 140 nM in experiment [5]. Moreover, in experiment [4], the “Ishikawa Agonist % Eff” value amounted to 21%. This compound also gave an EC50 in experiment [4] of 260 nM.
In the case of `Oc1ccc2c3c(ccc2c1)-c1ccccc1COC3c1ccc(OCCN2CCCCC2)cc1` (stereo not drawn) [Example 4, 11-[4-(2-Piperidin-1-yl-ethoxy)-phenyl]-11,13-dihydro-12-oxa-benzo[3,4]cyclohepta[1,2-a]naphthalen-8-ol trifluoroacetate], the IC50 in experiment [1] (Homo sapiens, Ishikawa) stood at 36 nM; in experiment [3] (setting [7]) it was 2.4 nM. In addition, the results for the Ki in experiment [2] and in experiment [5] were 4 nM and 2.6 nM, respectively. Also, the “Ishikawa Agonist % Eff” value in experiment [4] is 17%. For the same compound, the EC50 in experiment [4] was determined as 1.4 nM.

The record behind these values is US7271264B2, “Pentacyclic oxepines and derivatives thereof, compositions and methods” (Eli Lilly and Company, priority 2002, dated 2007).
